According to patent US11110078B2, “Composition and method for treatment of diseases associated with central nervous system inflammation” (AMRITA VISHWA VIDYAPEETHAM, priority 2019, dated 2021):

How the values were obtained:
p38MAPK = p38MAPK expression in LPS stimulated cultured astrocytes; format: cell-based; settings: 500 ng/mL, n=3
EAE induced animals [1] = assay: Reversal of EAE: clinical scores in paralyzed EAE animals; format: in vivo, C57BL/6 mice
Procedure: (§1) Treatment was given to a group of animals with average clinical score of 3 for a period of 2 weeks. EAE induced animals were injected at clinical score 3.5 with GMFBI.1 compound 300 μg/mice (12 mg/Kg) twice daily at day 13.EAE clinical scores of C57BL/6 mice treated with GMFBI.1 compound ([…] i.p twice daily) and controls with saline (n=5 per group) is shown in FIG. 7A.
(§2) Animals were sacrificed 25 days after GMFBI.1 compound treatment and the levels of leukocyte infiltrates in brain as shown in FIG. 7C and spinal cord as shown in FIG. 7D were compared against EAE control by Haematoxylin and Eosin(H and E) staining.

EAE induced animals [2] = assay: Leukocyte infiltrates in brain and spinal cord of EAE animals by H and E staining; format: in vivo, C57BL/6 mice; settings: 25 days after treatment, versus saline treated EAE controls, P<0.05, n=3
Description: as §2

[3] = In vivo toxicity: serum AST and ALT liver enzymes; set-up: species or system mice; settings: 3, 10 and 25 days
Procedure: In vitro efficacy of GMFBI.1 compound in down regulating the expression of both proinflammatory mediators p38MAPK and NFκB under the control of GMF-β and its non-toxic nature at lower concentrations was first evaluated. The levels of aspartate amino transferase (AST) and alanine amino transferase (ALT) were measured spectrophotometrically from serum of GMFBI.1 compound administered animals to monitor its liver function as shown in FIG. 6A and FIG. 6B respectively. […] Grey shaded region denotes the normal range of AST and ALT enzymes in mice in FIG. 6A and FIG. 6B respectively.
The GMFBI.1 compound distribution in various compartments (organs, plasma & urine) of normal healthy mice at different time intervals (30 minutes, 1, 2, 3 and 6 hours) and its distribution profile (n=3 per group), is shown in FIG. 6C. […] Further, again 300 μg of GMFBI.1 was injected in EAE animals and the blood brain barrier is compromised as in MS patients. […] Both AST and ALT activity was measured at 3, 10 and 25 days.

[4] = test system: proinflammatory and anti-inflammatory cytokines; assay: Cytokine levels in treated EAE animals (relative fold change); format: in vivo, C57BL/6 mice
Description: From FIG. 7G, it is observed that down regulation of these inflammatory cytokines has potential significance in the therapy and increased levels of anti-inflammatory cytokines particularly IL-10 and TGF beta levels. In MS patients, the levels of TGF beta and IL-10 are low compared to healthy individuals and significant down regulation of IL-17 are promising as IL-17 drives the inflammation in EAE and MS disease.

GMF-β = GMF-β (Homo sapiens, UniProt P60983); assay: In vitro phosphorylation of purified GMF-β by PKA; format: biochemical; settings: 250 ng/mL GMFBI.1, 1 μg/mL GMF-β, versus lane without compound
Procedure: With the in silico proof of concept showing high binding efficacy to GMF-β phosphorylation sites, in vitro phosphorylation studies using PKA (PKA phosphorylation results in activation of the downstream proinflammatory cascade) and purified GMF-β in presence and absence of GMFBI.1 compound is performed. […] In FIG. 4B, “+” sign indicates experiment with 1 μg/mL GMF-β and PKA, “−” indicates control reaction in the absence of PKA and “GMFBI.1” indicates phosphorylation level on GMF-β in the presence of small molecule GMFBI.1 (250 ng/mL).

astrocytes = assay: MTT cell viability assay on cultured astrocytes; format: cell-based; settings: 48 hours incubation, 0-3 mg/mL tested
Procedure: In order to test whether virtually screened GMFBI.1 drug like compound is toxic to the cells, different concentrations (0-3 mg/mL) of GMFBI.1 on astrocytes were tested. Test includes performing MTT cell viability assay following 48 hours of incubation with GMFBI.1. […] NC represents […] with 10% Triton X-100.

[5] = Bio-distribution in compartments of normal healthy mice; format: in vivo, C57BL/6 mice; settings: 300 μg intraperitoneal
Procedure: (§3) The GMFBI.1 compound distribution in various compartments (organs, plasma & urine) of normal healthy mice at different time intervals (30 minutes, 1, 2, 3 and 6 hours) and its distribution profile (n=3 per group), is shown in FIG. 6C. […] Further, again 300 μg of GMFBI.1 was injected in EAE animals and the blood brain barrier is compromised as in MS patients. […] Based on these observations, mice was injected twice daily with 300 μg/mice (12 mg/Kg) GMFBI.1 for 25 days. Both AST and ALT activity was measured at 3, 10 and 25 days.

NFκB = NFκB expression in LPS stimulated cultured astrocytes; format: cell-based; settings: 500 ng/mL, n=3
[6] = Distribution into brain of EAE mice; format: in vivo
Procedure: as §3, §1

[7] = 300 μg/mice twice daily for 25 days
[8] = versus untreated EAE controls, n=3

Chain of GMF-β (P60983 2-142 limits assumed): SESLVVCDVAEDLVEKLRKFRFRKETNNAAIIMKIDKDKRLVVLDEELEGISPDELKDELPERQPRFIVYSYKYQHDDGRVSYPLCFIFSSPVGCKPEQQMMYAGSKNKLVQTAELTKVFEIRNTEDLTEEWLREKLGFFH

SMILES: OCc1cccc2[nH]ncc12 [GMFBI.1, (1-H Indazol-4-yl)-methanol]
- p38MAPK protein expression (p38MAPK): statistically significant suppression
- EAE clinical score by day 18 (EAE induced animals [1]; 300 μg/mice (12 mg/Kg; also printed 14 mg/kg i.p) twice daily from day 13, n=5): the clinical score started to improve
- clinical score versus control (EAE induced animals [1]; from 7th day after treatment, P<0.001): Significant reduction in the clinical score
- body weight over time versus control animals (EAE induced animals [1]; treated EAE animals): significant weight gain
- EAE clinical score by day 40 (EAE induced animals [1]; twice daily i.p. from day 13): very low clinical score
- locomotor motion by day 30 (EAE induced animals [1]; twice daily i.p. from day 13): able to show improvements in locomotor motion and was able to walk
- number of cellular infiltrates in brain (EAE induced animals [2]): significant reduction in the number of cellular infiltrates
- number of cellular infiltrates in spinal cord (EAE induced animals [2]): significant reduction in the number of cellular infiltrates
- ALT activity level versus control [3, 7]: remained similar to that of control
- AST activity level versus control [3, 7]: remained similar to that of control
- serum ALT level versus saline controls ([3]; 14 mg/kg twice daily): No significant difference
- serum AST level versus saline controls ([3]; 14 mg/kg twice daily): No significant difference
- IL1-β level ([4]; following treatment): down regulated significantly
- GMCSF level ([4]; versus EAE controls, n=3): significant decrease
- IFN-γ level ([4]; versus EAE controls, n=3): significant decrease
- IL-6 level ([4]; versus EAE controls, n=3): significant decrease
- IL-17A level ([4]; versus EAE controls, n=3): significant decrease
- TNF-α level ([4]; versus EAE controls, n=3): significant decrease
- IL-10 level (anti-inflammatory) [4, 8]: elevated significantly
- TGF-β level (anti-inflammatory) [4, 8]: elevated significantly
- phosphorylation of GMF-β by PKA (GMF-β): several fold decrease in phosphorylation
- concentration up to which astrocytes remained viable (astrocytes): ≤ 1000 µg/mL
- amount of compound in liver within three hours [5]: significantly reduced compared to 2 hrs
- compound in brain of healthy mice at any time period [5]: no GMFBI.1 compound was detected in the brains
- compound in kidney within three hours [5]: transiently seen in kidney
- compound in plasma at 30 mins to 1 hr [5]: most of the GMFBI.1 compound remained in the plasma
- compound in plasma by two hours [5]: no GMFBI.1 compound could be detected in plasma
- compound in urine within three hours [5]: found majorly in urine
- free compound in organs by 6 hrs [5]: no free GMFBI.1 compound in any of the organs were detected
- NFκB protein expression (NFκB): statistically significant suppression
- amount of compound in brain by 3 hrs ([6]; 300 μg injected, EAE animals): ≤ 15 µg
- compound in brain by 6 hrs ([6]; 300 μg injected, EAE animals): no GMFBI.1 may be detected in the brain
- time by which compound is detected in brain ([6]; 300 μg injected, EAE animals): ≤ 2 h
- blood brain barrier crossing ([6]; EAE mice): able to cross the blood brain barrier
- retention in the system ([6]; EAE mice): at least three hours
